# pIC50: −log10 of the molar value.
# What was measured:
# [1] = Growth inhibition of human HL60 cells at 30 uM after 72 hrs by MTT assay; format: functional; settings: HL-60, 72 h, read-out: GI
# [2] = Growth inhibition of human HL60 cells at 50 uM after 72 hrs by MTT assay; format: functional; settings: HL-60, 72 h, read-out: GI
# [3] = Growth inhibition of human MIAPaCa2 cells at 30 uM after 72 hrs by MTT assay; format: functional; settings: MIA PaCa-2, 72 h, read-out: GI
# [4] = Growth inhibition of human MIAPaCa2 cells at 50 uM after 72 hrs by MTT assay; format: functional; settings: MIA PaCa-2, 72 h, read-out: GI
# MCF7 [5] = experiment: Growth inhibition of human MCF7 cells at 30 uM after 72 hrs by MTT assay; format: functional; settings: MCF7, 72 h, read-out: GI
# MCF7 [6] = experiment: Growth inhibition of human MCF7 cells at 50 uM after 72 hrs by MTT assay; format: functional; settings: MCF7, 72 h, read-out: GI
# HepG2 [7] = experiment: Growth inhibition of human HepG2 cells at 30 uM after 72 hrs by MTT assay; format: functional; settings: HepG2, 72 h, read-out: GI
# HepG2 [8] = experiment: Growth inhibition of human HepG2 cells at 50 uM after 72 hrs by MTT assay; format: functional; settings: HepG2, 72 h, read-out: GI
# SK-N-SH [9] = experiment: Growth inhibition of human SK-N-SH cells at 30 uM after 72 hrs by MTT assay; format: functional; settings: read-out: GI
# SK-N-SH [10] = experiment: Growth inhibition of human SK-N-SH cells at 50 uM after 72 hrs by MTT assay; format: functional; settings: read-out: GI
# [11] = Growth inhibition of human HL60 cells after 72 hrs by MTT assay; format: functional, cell-based; settings: HL-60, 72 h
# [12] = Growth inhibition of human MIAPaCa2 cells after 72 hrs by MTT assay; format: functional, cell-based; settings: MIA PaCa-2, 72 h
# MCF7 [13] = experiment: Growth inhibition of human MCF7 cells after 72 hrs by MTT assay; format: functional, cell-based; settings: MCF7, 72 h
# HepG2 [14] = experiment: Growth inhibition of human HepG2 cells after 72 hrs by MTT assay; format: functional, cell-based; settings: HepG2, 72 h
# SK-N-SH [15] = experiment: Growth inhibition of human SK-N-SH cells after 72 hrs by MTT assay; format: functional, cell-based
# [16] = Growth inhibition of human HL60 cells after 24 hrs by MTT assay; format: functional, cell-based; settings: HL-60, 24 h
SMILES,inhibition of growth at 30 µM [1] [%],inhibition of growth at 50 µM [2] [%],inhibition of growth at 30 µM [3] [%],inhibition of growth at 50 µM [4] [%],inhibition of growth at 30 µM (MCF7 [5]) [%],inhibition of growth at 50 µM (MCF7 [6]) [%],inhibition of growth at 30 µM (HepG2 [7]) [%],inhibition of growth at 50 µM (HepG2 [8]) [%],inhibition of growth at 30 µM (SK-N-SH [9]) [%],inhibition of growth at 50 µM (SK-N-SH [10]) [%],pIC50 [11],pIC50 [12],pIC50 (MCF7 [13]),pIC50 (HepG2 [14]),pIC50 (SK-N-SH [15]),pIC50 [16]
C=CCc1cc(O)c(O)c(CN2CCN(c3ccc(C(C)=O)cc3)CC2)c1,87.9,89.2,86.2,75.1,42.8,47.1,46.1,65.9,53.8,54.6,,,,,,
C=CCc1cc(O)c(O)c(CN2CCC(Cc3ccccc3)CC2)c1,90.6,94.4,88.9,90.9,70.9,86.3,70.2,84,78.8,83.4,5.52,5.40,4.80,4.66,4.96,4.82
C=CCc1ccc(OCc2cn(-c3cccc(C#N)c3)nn2)c(O)c1,22.5,30.9,26.6,41.6,31.9,33.4,2.3,3.4,21.2,78.8,,,,,,
C=CCc1cc(O)c(O)c(CN2CCC(C)CC2)c1,91.1,91.8,91.5,90.6,41.7,54.2,57.6,69.7,74.7,84.2,,,,,,
C=CCc1ccc(OCc2cn(-c3ccc(OC)cc3)nn2)c(O)c1,21.3,38.9,62.3,88.2,38.8,57.2,15.4,49.9,31.5,68.5,,,,,,
C=CCc1cc(O)c(O)c(CN2CCN(C)CC2)c1,42.1,53.4,46.8,69.5,22.8,35.1,1.5,6.3,24.7,30.8,,,,,,
C=CCc1ccc(OCc2cn(-c3ccccc3CO)nn2)c(O)c1,31.7,47.1,39.6,52.1,34.5,40.4,4.2,8.5,12.9,87.1,,,,,,
C=CCc1ccc(OCc2cn(-c3ccc(C#N)cc3)nn2)c(O)c1,20.8,31.8,39.3,45.9,35.7,35.6,1.5,12.1,37.5,62.5,,,,,,
C=CCc1cc(O)c(O)c(CN2CCC(CCO)CC2)c1,39.4,52.1,54.4,71.8,21.4,33.3,2.5,2,15.3,40.6,,,,,,
C=CCc1cc(O)c(O)c(CN2CCOCC2)c1,89.8,90.5,54.4,67.5,33.5,48.9,2.1,6.5,49.6,86.1,,,,,,
C=CCc1ccc(OCc2cn(-c3cccc([N+](=O)[O-])c3)nn2)c(O)c1,29.8,65.5,42.9,58.8,42.3,56.5,15.2,30.2,31.1,68.9,,,,,,
C=CCc1ccc(OCc2cn(-c3ccc(Br)cc3)nn2)c(O)c1,22.1,25.6,43.3,47.3,19.4,29.1,8.9,9.5,38.3,61.7,,,,,,
C=CCc1ccc(OCc2cn(-c3ccc(C(=O)c4ccccc4)cc3)nn2)c(O)c1,38.3,40.5,40.1,53.7,40.3,35.6,14.8,16.2,41.9,58.1,,,,,,
C=CCc1cc(O)c(O)c(CN2CCC(CO)CC2)c1,37.7,43.3,34.1,38.6,26.2,32.3,4.7,5.4,21.9,49.4,,,,,,
C=CCc1ccc(OCc2cn(-c3ccccc3Cl)nn2)c(O)c1,38.7,43.2,46.6,57.7,58.3,34.3,2.5,4.7,10.2,42.8,,,,,,
C#CCOc1ccc(CC=C)cc1O,30.7,34.2,27.4,30.3,23.7,15.8,1.5,5.6,11.8,88.4,,,,,,
C=CCc1ccc(OCc2cn(-c3cc(OC)c(OC)c(OC)c3)nn2)c(O)c1,32.8,41.4,41.1,49.8,37.3,38.1,1.2,2.5,44.1,55.9,,,,,,
